Earlier results on one molecule are cited in EP1541129A1, “Pharmaceutical effervescent formulation comprising amoxycillin and clavulanic acid” (Cimex AG, priority 2003, dated 2005).

The conditions of the data set: freely water-soluble.

As for `O=C(O)[C@H]1/C(=C/CO)O[C@@H]2CC(=O)N21` [Potassium clavulanate, potassium clavulanate], the solubility in water entry is “about 1 part of water for 1 part of solute”.
